This is an account of results in publication PMC4274187 (Bioorganic & medicinal chemistry, 2014).

Assay [1] has as its target dopamine transporter (DAT) (Mus musculus, UniProt Q61327). Briefly: DAT binding, [125I]RTI-121, mouse striatal membranes. The following applies: for inhibition at 10 µM: read-out: DAT % Inh.
Assay [2] addresses σ1 receptors. As to conditions: read-out: apparent affinity for σ1 receptors; more recent determination; cited from earlier work.
Assay [3] relates to norepinephrine transporter. The following applies: cited from earlier work.
For assay [4], the target named is serotonin transporter (SERT) (Mus musculus, UniProt Q60857). The assay can be described thus: SERT binding, [3H]paroxetine, mouse whole brain membranes. As to conditions: ratio of DAT and SERT Ki.
serotonin transporter (SERT), sequence (Q60857 whole entry): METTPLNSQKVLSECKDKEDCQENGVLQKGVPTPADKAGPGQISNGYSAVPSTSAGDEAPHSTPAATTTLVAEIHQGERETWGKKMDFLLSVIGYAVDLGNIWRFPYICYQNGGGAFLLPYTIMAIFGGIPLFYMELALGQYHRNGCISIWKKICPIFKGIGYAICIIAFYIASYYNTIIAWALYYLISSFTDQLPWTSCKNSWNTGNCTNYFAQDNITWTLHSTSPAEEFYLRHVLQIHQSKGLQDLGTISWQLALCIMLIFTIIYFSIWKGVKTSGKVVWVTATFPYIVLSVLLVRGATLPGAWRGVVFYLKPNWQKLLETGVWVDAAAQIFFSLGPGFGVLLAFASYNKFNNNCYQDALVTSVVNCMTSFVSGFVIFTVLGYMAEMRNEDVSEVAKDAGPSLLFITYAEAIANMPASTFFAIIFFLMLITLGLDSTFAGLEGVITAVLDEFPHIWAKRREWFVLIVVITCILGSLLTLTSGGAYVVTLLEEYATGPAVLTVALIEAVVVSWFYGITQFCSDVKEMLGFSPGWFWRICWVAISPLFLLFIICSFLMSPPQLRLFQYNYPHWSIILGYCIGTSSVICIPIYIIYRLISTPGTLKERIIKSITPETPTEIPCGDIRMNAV
Assay [5] concerns the target vesicular acetylcholine transporter. The following applies: read-out: vesicular acetylcholine transporter Ki; secondary interaction; cited from earlier work.

The structures appear in SMILES notation.

dopamine transporter (DAT), sequence (Q61327 whole entry): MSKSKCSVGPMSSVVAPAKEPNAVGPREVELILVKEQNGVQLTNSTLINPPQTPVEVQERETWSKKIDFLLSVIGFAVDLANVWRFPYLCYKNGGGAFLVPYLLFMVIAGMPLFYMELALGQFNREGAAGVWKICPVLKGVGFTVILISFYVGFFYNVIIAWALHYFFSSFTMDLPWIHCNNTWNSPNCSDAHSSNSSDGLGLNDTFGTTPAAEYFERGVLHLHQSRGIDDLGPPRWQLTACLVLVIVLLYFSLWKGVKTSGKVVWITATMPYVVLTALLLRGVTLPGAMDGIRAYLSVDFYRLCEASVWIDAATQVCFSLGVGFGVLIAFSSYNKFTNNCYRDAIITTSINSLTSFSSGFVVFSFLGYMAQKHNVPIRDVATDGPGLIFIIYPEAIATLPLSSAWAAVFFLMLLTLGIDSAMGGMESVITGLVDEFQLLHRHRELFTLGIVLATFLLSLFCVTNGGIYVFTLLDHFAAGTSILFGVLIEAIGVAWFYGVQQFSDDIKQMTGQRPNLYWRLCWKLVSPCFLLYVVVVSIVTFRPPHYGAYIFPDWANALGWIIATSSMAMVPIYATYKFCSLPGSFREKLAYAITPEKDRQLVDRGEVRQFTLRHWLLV

Take `COc1cc(CCN2CCN(CCCc3ccccc3)CC2)ccc1OCCF` [FE-SA4503]: the inhibition at 10 µM in assay [1] worked out at 19%.
As to `Fc1ccc(C(OCCN2CCN(CCCc3ccccc3)CC2)c2ccc(F)cc2)cc1` [GBR 12909], the Ki in assay [2] was 0.0508 µM. In assay [3], the “affinity for the norepinephrine transporter” value was > 1000 nM.
With `COc1ccc(CCN2CCN(CCCc3ccccc3)CC2)cc1OC` [SA4503, 1-[2-(3,4-dimethoxyphenyl)ethyl]-4-(3-phenylpropyl)piperazine], in assay [1], the Ki came out at 12.7 ± 0.832 µM and the inhibition at 10 µM is 23%. The “higher affinity for SERT over DAT” value in assay [4] turned out to be 16 fold. Moreover, the Ki in assay [5] was 0.05 µM.
For the compound `CCCOc1ccc(CCN2CCN(CCCc3ccccc3)CC2)cc1OC` [compound 1, 1-(3-methoxy-4-propoxyphenethyl)-4-(3-phenylpropyl)piperazine], the Ki in assay [1] was ~2 µM.
On to `COc1cc(CCN2CCN(CCCc3ccccc3)CC2)ccc1OCc1ccccc1` [compound 4, 1-(4-(benzyloxy)-3-methoxyphenethyl)-4-(3-phenylpropyl)piperazine], for which the “higher DAT affinity than SA4503” value in assay [1] (relative to parent SA4503) is “over 100 fold”.
As to `c1ccc(CCCN2CCN(CCc3ccc4c(c3)OCO4)CC2)cc1` [compound 7, 1-(3,4-methylenedioxyphenethyl)-4-(3-phenylpropyl)piperazine], in assay [1], the Ki was ~2 µM.
